Assays:
[1] = biological target: T1, VMAT2 (Homo sapiens, UniProt Q05940); settings: background statements; cited from earlier work
[2] = biological target: DAT (Homo sapiens, UniProt Q01959); settings: transfected cells; Miller et al 2004; cited from earlier work
[3] = biological target: T1, VMAT2; settings: transfected cells; Miller et al 2004; cited from earlier work
[4] = rats, lever press; Harrod et al 2001; cited from earlier work
[5] = biological target: T2, recombinant human serotonin transporter (hSERT) (Homo sapiens, UniProt P31645); assay: [125I]RTI-55 binding, HEK-hSERT; settings: used in Cheng-Prusoff equation
T2 construct: expressed in transfected cells; host or cells: HEK cells
Experimental: (§1) Standard methods of assessing [^3H]neurotransmitter uptake and [^125I]RTI-55 binding using HEK cell lines are described in Eshleman et al, J Pharmacol Exp Therap 289, 877-885 (1999), which is incorporated by reference herein and were as follows:
(§2) Compounds were weighed and dissolved in DMSO to make a stock solution of 10 mM. An initial dilution to 50 μM in assay buffer or water for binding, or to 1 mM in assay buffer or water for uptake, was made. Subsequent dilutions were made with assay buffer supplemented with DMSO, maintaining a final concentration of 0.1% DMSO. Pipetting was conducted using a Biomek 2000 robotic workstation.
(§3) Cells were grown to 100% confluence on 150 mm diameter tissue culture dishes and served as the tissue source. Cell membranes were prepared as follows. Medium was poured off the plate, and the plate was washed with 10 ml of calcium- and magnesium-free phosphate-buffered saline. Lysis buffer (10 ml; 2 mM HEPES with 1 mM EDTA) was added. After 10 min, lysed cells were scraped from plates, transferred into centrifuge tubes, and centrifuged at 30,000×g for 20 min. The supernatant fluid was removed, and the pellet was resuspended in 12-32 ml of sucrose (0.32 M) using a Polytron at setting 7 for 10 sec. The resuspension volume depended on the density of binding sites within a cell line and was chosen to reflect binding of 10% or less of the total radioactivity. […]

[6] = biological target: T3, recombinant human norepinephrine transporter (hNET) (Homo sapiens, UniProt P23975); assay: [125I]RTI-55 binding, HEK-hNET; settings: used in Cheng-Prusoff equation
T3 construct: expressed in transfected cells; host or cells: HEK cells
Experimental: as §1, §2, §3

[7] = biological target: T4, recombinant human dopamine transporter (hDAT) (Homo sapiens, UniProt Q01959); assay: [125I]RTI-55 binding, HEK-hDAT; settings: used in Cheng-Prusoff equation
T4 construct: expressed in transfected cells; host or cells: HEK cells
Experimental: as §1, §2, §3

[8] = biological target: T5, human 5HT2C receptor (Homo sapiens, UniProt P28335); assay: h5HT2C receptors: [125I]DOI binding; settings: read-out: Kd for [^125I] DOI at 5HT2C receptors; used in Cheng-Prusoff equation
T5 construct: expressed in transfected cells; host or cells: HEK cells
T5 sequence (P28335 33-458): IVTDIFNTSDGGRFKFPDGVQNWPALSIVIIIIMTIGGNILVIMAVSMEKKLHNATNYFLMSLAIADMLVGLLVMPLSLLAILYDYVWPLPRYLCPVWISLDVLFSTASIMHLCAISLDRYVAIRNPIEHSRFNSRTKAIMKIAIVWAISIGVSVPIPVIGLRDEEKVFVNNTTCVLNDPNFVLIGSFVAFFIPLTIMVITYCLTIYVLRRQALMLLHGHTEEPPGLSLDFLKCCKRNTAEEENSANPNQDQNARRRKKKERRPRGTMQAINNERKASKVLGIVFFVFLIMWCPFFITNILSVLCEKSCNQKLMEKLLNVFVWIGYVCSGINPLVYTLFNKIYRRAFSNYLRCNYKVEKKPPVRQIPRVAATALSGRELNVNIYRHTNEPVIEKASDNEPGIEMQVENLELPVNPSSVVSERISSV
Experimental: The method was adapted from AR Knight et al, Naunyn-Schmeideberg's Arch Pharmacol 370, 114-123 (2004).
Method: Human embryonic kidney cells expressing the human 5HT2A receptor (HEK-h5HT2A) or human 5HT2C receptor (HEK-h5HT2C) were used. The cells were grown until confluent on 15 cm plates. Media was removed, cells were washed with phosphate-buffered saline (PBS), scraped into 2 ml PBS and frozen at −20° C. until needed. Cell suspension was thawed, 10 ml assay buffer (50 mM Tris, pH 7.4 at 37° C., with 0.1% ascorbic acid and 5 mM CaCl2) was added per plate of cells, and polytronned at setting 6 for 5 sec. The homogenate was centrifuged at 15,500 rpm for 20 min. To minimize the residual 5HT concentration, the pellet was resuspended in buffer, polytronned, and centrifuged as above. The final pellet was resuspended in 2 ml buffer/plate of cells.
The binding assay included 50 μl drug, 5HT or buffer, 50 μl cell homogenate, 50 μl [^125I]DOI (˜0.1 nM) and buffer in a final volume of 250 μl. Specific binding was defined as the difference between total binding and binding in the presence of 10 μM 5HT. The reaction was incubated for 1 hour at 37° C., and terminated by filtration through Wallac A filtermats presoaked in 0.05% polyethylenimine using a Tomtec 96-well harvester. Radioactivity remaining on filters was counted in a Wallac betaplate reader. IC50 values were calculated using GraphPad Prism. […]

[9] = biological target: T1, VMAT2; settings: high concentrations; cited from earlier work
[10] = base; cited from earlier work

T1 sequence (Q05940 whole entry, species assumed): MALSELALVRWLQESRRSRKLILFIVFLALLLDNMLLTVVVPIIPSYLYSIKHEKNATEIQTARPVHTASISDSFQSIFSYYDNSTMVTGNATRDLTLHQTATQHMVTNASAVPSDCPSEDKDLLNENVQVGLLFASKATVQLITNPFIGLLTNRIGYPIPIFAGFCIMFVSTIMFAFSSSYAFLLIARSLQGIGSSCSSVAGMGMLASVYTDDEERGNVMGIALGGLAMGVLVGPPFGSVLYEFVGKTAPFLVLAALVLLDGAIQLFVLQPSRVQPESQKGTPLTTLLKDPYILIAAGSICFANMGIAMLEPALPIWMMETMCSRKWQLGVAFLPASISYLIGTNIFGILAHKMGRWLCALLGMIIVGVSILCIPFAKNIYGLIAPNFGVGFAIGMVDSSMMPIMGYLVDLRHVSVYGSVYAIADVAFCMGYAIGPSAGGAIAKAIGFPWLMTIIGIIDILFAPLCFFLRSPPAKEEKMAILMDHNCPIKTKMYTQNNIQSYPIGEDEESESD
Chain of DAT (Q01959 whole entry, species assumed): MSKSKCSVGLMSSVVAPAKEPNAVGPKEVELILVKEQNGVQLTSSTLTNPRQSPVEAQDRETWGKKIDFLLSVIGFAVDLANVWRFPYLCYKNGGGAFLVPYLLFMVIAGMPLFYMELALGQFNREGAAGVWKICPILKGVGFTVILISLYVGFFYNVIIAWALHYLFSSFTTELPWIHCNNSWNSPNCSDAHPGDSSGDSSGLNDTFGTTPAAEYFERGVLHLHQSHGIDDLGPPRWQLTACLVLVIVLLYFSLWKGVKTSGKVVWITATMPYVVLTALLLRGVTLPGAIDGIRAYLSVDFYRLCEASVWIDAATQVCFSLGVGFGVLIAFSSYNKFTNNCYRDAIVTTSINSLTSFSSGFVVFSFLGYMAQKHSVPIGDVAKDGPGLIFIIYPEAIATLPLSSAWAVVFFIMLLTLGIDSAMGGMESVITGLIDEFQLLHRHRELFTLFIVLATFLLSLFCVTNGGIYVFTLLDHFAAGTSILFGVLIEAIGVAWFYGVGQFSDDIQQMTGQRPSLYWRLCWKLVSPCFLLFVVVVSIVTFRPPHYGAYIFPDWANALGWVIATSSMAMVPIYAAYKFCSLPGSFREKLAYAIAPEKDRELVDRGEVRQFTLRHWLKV
T4 sequence (Q01959 whole entry): as the sequence (Q01959 whole entry, species assumed) above
T3 sequence (P23975 whole entry): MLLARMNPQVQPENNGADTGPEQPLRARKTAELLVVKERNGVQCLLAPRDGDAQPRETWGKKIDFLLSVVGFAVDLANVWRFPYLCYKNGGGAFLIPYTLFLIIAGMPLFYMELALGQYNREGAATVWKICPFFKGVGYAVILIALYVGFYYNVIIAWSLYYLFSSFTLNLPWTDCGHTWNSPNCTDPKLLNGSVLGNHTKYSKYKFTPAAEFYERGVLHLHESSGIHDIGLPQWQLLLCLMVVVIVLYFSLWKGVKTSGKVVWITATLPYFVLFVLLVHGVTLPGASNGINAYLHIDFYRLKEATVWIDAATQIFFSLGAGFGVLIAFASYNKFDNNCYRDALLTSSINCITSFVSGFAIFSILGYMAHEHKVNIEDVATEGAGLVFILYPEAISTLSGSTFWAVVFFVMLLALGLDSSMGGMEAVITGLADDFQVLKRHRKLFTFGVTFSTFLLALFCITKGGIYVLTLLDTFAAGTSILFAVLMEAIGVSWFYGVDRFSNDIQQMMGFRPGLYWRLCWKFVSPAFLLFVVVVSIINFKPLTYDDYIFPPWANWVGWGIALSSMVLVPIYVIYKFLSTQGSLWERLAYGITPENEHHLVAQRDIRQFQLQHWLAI
T2 sequence (P31645 whole entry): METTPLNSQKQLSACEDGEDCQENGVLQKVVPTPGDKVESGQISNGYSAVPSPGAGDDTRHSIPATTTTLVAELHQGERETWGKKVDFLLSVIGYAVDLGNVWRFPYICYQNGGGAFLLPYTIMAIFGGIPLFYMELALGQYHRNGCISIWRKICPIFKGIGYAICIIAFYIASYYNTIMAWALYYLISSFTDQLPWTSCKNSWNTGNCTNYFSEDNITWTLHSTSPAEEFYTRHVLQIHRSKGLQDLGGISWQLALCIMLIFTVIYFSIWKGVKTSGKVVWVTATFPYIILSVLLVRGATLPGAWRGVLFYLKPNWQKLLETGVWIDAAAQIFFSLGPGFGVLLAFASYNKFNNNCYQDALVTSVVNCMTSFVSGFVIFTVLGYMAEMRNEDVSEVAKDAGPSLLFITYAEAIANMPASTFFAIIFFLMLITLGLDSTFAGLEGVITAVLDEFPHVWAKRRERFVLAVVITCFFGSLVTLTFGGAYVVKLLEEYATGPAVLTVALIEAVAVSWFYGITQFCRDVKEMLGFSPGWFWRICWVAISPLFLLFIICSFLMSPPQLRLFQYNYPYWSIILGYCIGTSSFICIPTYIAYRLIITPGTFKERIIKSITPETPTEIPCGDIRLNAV

Structure (SMILES): O=C(c1ccc(F)cc1)C1CCN(CCn2c(=O)[nH]c3ccccc3c2=O)CC1 [Ketanserin]
- affinity for VMAT2 (in words) [1]: high affinity

Structure (SMILES): CN1[C@@H](CC(=O)c2ccccc2)CCC[C@H]1C[C@H](O)c1ccccc1 [lobeline, 2-((2R,6S)-6-((S)-2-Hydroxy-2-phenylethyl)-1-methylpiperidin-2-yl)-1-phenylethanone]
- affinity at the DAT [2]: 5.4 µM
- affinity at VMAT2 [3]: 4.3 µM
- responding for intravenous MA or sucrose after pretreatment [4]: decreased responding to both acutely

Structure (SMILES): COC(=O)[C@H]1[C@@H](c2ccc(I)cc2)C[C@@H]2CC[C@H]1N2C [[^125I]RTI-55]
- Kd [5]: 0.98 nM
- Kd [6]: 12.1 nM
- Kd [7]: 1.2 nM

Structure (SMILES): COc1cc(CC(C)N)c(OC)cc1I (stereo not shown) [[^125I] DOI]
- Kd [8]: 4.18 nM

Structure (SMILES): CN[C@@H](C)Cc1ccccc1 [MA, Methamphetamine]
- concentration for inhibition of [^3H]DTBZ binding [9]: 1.2 mM
- pKa [10]: 9.8

— patent US9546151B2, “VMAT inhibitory compounds” (Oregon Health & Science University, priority 2014, dated 2017)
